Here are results for 5 compounds from publication PMC9933440 (Crystal Growth & Design, 2022).

For data set [1] the following is noted: pKa (base) – pKa (acid); for ΔpKa for MEL: hydroxyl group of MEL; for ΔpKa for PRM: hydroxyl group of PRM.
The conditions of data set [2]: ref 77 (4AP), ref 78 (4DMP), ref 79 (PPZ); cited from earlier work.
For data set [3] the following is noted: pH 7.4; cited from earlier work.
For data set [4] the following is noted: cited from earlier work.
For data set [5] the following is noted: cited from earlier work. The source holds these as a separate data set.
Another data set can be described thus: physchem. As to conditions: pH 6.5. On the procedure: Solubility experiments were conducted in sodium phosphate buffer solutions at pH 6.5 and 37 °C to simulate intestinal physiological conditions. For each experiment, an excess crystalline solid was sieved through a 300 μm sieve and introduced into a flask with a screw top containing 100 mL of the medium. The solution was stirred at 200 rpm using a magnetic stir bar for 48 h to reach the equilibrium state. […] After each sampling, the volume of the liquid removed from the suspension was not compensated. The withdrawn suspension was filtered through 0.2 μm nylon filters and diluted prior to high-performance liquid chromatography (HPLC) analysis. The solubility experiment for each crystal form was repeated in triplicate. After the last sample collection, the remaining solid material in the suspension was filtered, dried, and characterized by IR and PXRD.
A C18 HPLC column (YMC-Pack ODS-A column, 4.6 mm × 250 mm, 5 μm) with a flow rate of 1 mL min^–1 was employed, and the column temperature was set at 25 °C. The binary mobile phase consisted of acetonitrile and sodium phosphate buffer (pH 6.5) in a volume ratio of 25:75. The samples were diluted appropriately with the mobile phase, and the absorbance was measured at 347 nm.

Consider `Nc1ccncc1` [4AP, 4-aminopyridine], for which, in data set [1], the “ΔpKa for MEL” value amounted to 8.08 and the “ΔpKa for PRM” value is given as 7.31. The “pKa in water (salt former)” value in data set [2] was 9.17[77].

Turning to `CN(C)c1ccncc1` [4DMP, 4-dimethylaminopyridine], in data set [1], the “ΔpKa for MEL” value is listed as 8.61 and the “ΔpKa for PRM” value is on record as 7.84.

In the case of `CC(=O)Oc1ccccc1C(=O)O.Cc1cnc(NC(=O)C2=C(O)c3ccccc3S(=O)(=O)N2C)s1` [MEL Aspirin], the “solubility vs parent API (fold)” value in data set [3] is given as 44 x. The “bioavailability vs parent API (fold)” value in data set [4] is given as 4.4 x.

`Cc1cnc(NC(=O)C2=C(O)c3ccccc3S(=O)(=O)N2C)s1` [MEL, meloxicam]: in data set [5] (pH <3), the “degradation at lower pH” value was “significant degradation”. In the data set “physchem”, the “time to highest solubility / maximum dissolved concentration / equilibrium” value was determined as 90 min.

Take `CN1C(C(=O)Nc2ccccn2)=C(O)c2ccccc2S1(=O)=O.NS(=O)(=O)c1cc(C(=O)O)c(NCc2ccco2)cc1Cl` [PRM furosemide]: in data set [5], the “stability under accelerated aging” value is recorded as “good stability under accelerated aging” and the thermal stability entry is reported as “good thermal stability”.
